Experimental data: US4931391A, “Method for preservation of nitrile hydration activity” (Mitsubishi Rayon Kabushiki Kaisha, priority 1986, dated 1990)
Where two headings read alike, the source gives them in different places. One block for each compound: values may come before it.

Experiments:
[1] = target: T1, (Rhodococcus erythropolis, UniProt P13448+P13449); test: Preservation of nitrile hydration activity of cell extract prepared as in Comparison Example 1, stabilizer added to extract; assay type: biochemical, Corynebacterium strain N-774(FERM P-4446)
T1 sequence (P13448 2-207 limits assumed): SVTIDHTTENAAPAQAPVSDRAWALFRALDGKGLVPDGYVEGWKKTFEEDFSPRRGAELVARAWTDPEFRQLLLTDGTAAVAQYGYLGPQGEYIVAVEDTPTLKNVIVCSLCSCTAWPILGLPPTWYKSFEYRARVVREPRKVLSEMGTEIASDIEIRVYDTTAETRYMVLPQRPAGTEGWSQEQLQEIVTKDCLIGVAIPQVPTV
T1 sequence (P13449 1-212): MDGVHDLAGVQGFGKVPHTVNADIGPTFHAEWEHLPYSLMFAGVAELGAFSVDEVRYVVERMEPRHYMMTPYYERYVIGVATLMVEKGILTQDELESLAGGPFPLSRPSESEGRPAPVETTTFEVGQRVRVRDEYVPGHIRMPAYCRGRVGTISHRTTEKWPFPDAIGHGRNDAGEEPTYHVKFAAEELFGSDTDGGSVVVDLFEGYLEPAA

immobilized nitrilase = immobilized nitrilase (Rhodococcus erythropolis, UniProt P13448+P13449); test: Preservation of nitrile hydration activity of immobilized enzyme (polyacrylamide gel); assay type: biochemical, Corynebacterium strain N-774(FERM P-4446); details: 0° C., 20 minutes
Procedure: 40 ml of a cell extract prepared as in Example 1, 4.5 g of acrylamide, 0.5 g of N,N'-methylenebisacrylamide, and 40 ml of M/20 phosphate buffer (containing 10 g/l of ammonium isobutyrate, pH 6.0) were mixed to form a homogeneous suspension. To this suspension were added 5 ml of a 5% aqueous solution of dimethylaminopropionitrile and 10 ml of a 1.0% aqueous solution of potassium persulfate, and the mixture was maintained at 10° C. for 30 minutes to cause polymerization. A mass of cell-containing gel obtained was crushed into small particles, which were thoroughly washed with M/20 phosphate buffer containing 5 g/l of ammonium isobutyrate, pH 7.0, whereby approximately 90 g of an immobilized enzyme was obtained.
The washed, immobilized enzyme thus obtained was placed in the same buffer containing 5 g/l of isobutyric acid and left standing at 20° C. for 3 days.
The nitrile hydration activity levels of the gel samples were measured as follows before and after the respective immobilized enzymes were left standing.
1 g of immobilized gel was mixed with 5 g of acrylonitrile and 97 ml of M/20 phosphate buffer (pH 7.7), and the mixture was subjected to reaction at 0° C. for 20 minutes with stirring. The quantities of acrylamide in the respective reaction solutions were determined by gas chromatography.

[2] = 48 h; 10 mg organic acid in 2.5 ml buffer + 2.5 ml extract; pH 6.5; 20° C. for 2 days; read-out: % Residual Activity (Organic Acid Added)
[3] = 48 h; 10 mg amide in 2.5 ml buffer + 2.5 ml extract; pH 6.5; 20° C. for 2 days; read-out: % Residual Activity (Amide Added)
[4] = 48 h, pH 6.5, read-out: % Residual Activity (Organic Acid Added)
[5] = 48 h, pH 6.5; read-out: % Residual Activity (Amide Added)
[6] = 48 h, pH 6.5; read-out: % Residual Activity (Organic Acid Added)
[7] = 48 h, pH 6.5; read-out: % Residual Activity (Nitrile Added)
[8] = 48 h; 10 mg nitrile in 2.5 ml buffer + 2.5 ml extract (0.8×10^3 U/ml); pH 6.5; 20° C. for 2 days; read-out: % Residual Activity (Nitrile Added)
[9] = pH 6, read-out: % Residual Activity
[10] = stabilizer concentration 0.01 g/l; pH 6.0; extract 0.7×10^3 U/ml; 20° C. for 2 days; read-out: % Residual Activity
[11] = stabilizer concentration 5.0 g/l; pH 6.0; extract 0.7×10^3 U/ml; 20° C. for 2 days; read-out: % Residual Activity
[12] = stabilizer concentration 20 g/l; pH 6.0; […]; 20° C. for 2 days; read-out: % Residual Activity
[13] = stabilizer concentration 50 g/l; pH 6.0; extract 0.7×10^3 U/ml; 20° C. for 2 days; read-out: % Residual Activity
[14] = 48 h, pH 6, read-out: % Residual Activity
[15] = 48 h, pH 7, read-out: % Residual Activity
[16] = stabilizer concentration 1.0 g/l; pH 6.0; […]; 20° C. for 2 days; read-out: % Residual Activity

activity at 2000 µg/mL [1, 2]: 60%
Structure (SMILES): O=C(O)C(O)CO (racemic) [DL-Glyceric acid]

activity at 2000 µg/mL [1, 3]: 57%
Structure (SMILES): CC(N)=O [Acetamide]

Structure (SMILES): CC(=O)O [Acetic acid]
activity at 2000 µg/mL [1, 4]: 55%

Structure (SMILES): CC#N [Acetonitrile]
activity at 2000 µg/mL ([1]; 48 h, pH 6.5, read-out: % Residual Activity (Nitrile Added)): 61%

Structure (SMILES): C=CC(N)=O [Acrylamide]
activity at 2000 µg/mL [1, 5]: 63%

Structure (SMILES): C=CC(=O)O [Acrylic acid]
activity at 2000 µg/mL [1, 6]: 53%

Structure (SMILES): C=CC#N [Acrylonitrile]
activity at 2000 µg/mL [1, 7]: 56%

Structure (SMILES): N#CCCCCC#N [Adiponitrile]
activity at 2000 µg/mL [1, 7]: 68%

activity at 2000 µg/mL [1, 3]: 47%
Structure (SMILES): NC(=O)c1ccccc1 [Benzamide]

Structure (SMILES): O=C(O)c1ccccc1 [Benzoic acid]
activity at 2000 µg/mL [1, 6]: 48%

Structure (SMILES): N#Cc1ccccc1 [Benzonitrile]
activity at 2000 µg/mL [1, 8]: 44%

Structure (SMILES): CCCC(=O)O [Butyric acid]
remaining activity at 100 µg/mL [1, 9]: 87%
remaining activity at 10 µg/mL [1, 10]: 63%
remaining activity at 1000 µg/mL ([1]; stabilizer concentration 1.0 g/l; pH 6.0; extract 0.7×10^3 U/ml; 20° C. for 2 days; read-out: % Residual Activity): 92%
remaining activity at 5000 µg/mL [1, 11]: 90%
remaining activity at 20000 µg/mL [1, 12]: 85%
remaining activity at 50000 µg/mL [1, 13]: 67%

Structure (SMILES): CCCCCC(=O)O [Caproic acid]
activity at 2000 µg/mL [1, 6]: 78%

Structure (SMILES): NC(=O)CCl [Chloroacetamide]
activity at 2000 µg/mL ([1]; 48 h, pH 6.5, read-out: % Residual Activity (Amide Added)): 60%

Structure (SMILES): N#CCCl [Chloroacetonitrile]
activity at 2000 µg/mL [1, 7]: 58%

Structure (SMILES): N#CCC(N)=O [Cyanoacetamide]
activity at 2000 µg/mL [1, 7]: 53%

activity at 2000 µg/mL [1, 8]: 54%
Structure (SMILES): N#CCC(=O)O [Cyanoacetic acid]

Structure (SMILES): O=CO [Formic acid]
activity at 2000 µg/mL [1, 4]: 48%

activity at 2000 µg/mL [1, 3]: 49%
Structure (SMILES): NCC(N)=O [Glycine amide]

Structure (SMILES): N#CCN [Glycine nitrile]
activity at 2000 µg/mL [1, 7]: 58%

activity at 2000 µg/mL [1, 2]: 52%
Structure (SMILES): O=C(O)CO [Glycolic acid]

activity at 2000 µg/mL [1, 2]: 72%
Structure (SMILES): O=CC(=O)O [Glyoxylic acid]

Structure (SMILES): CC(C)C(N)=O [Isobutyramide]
activity at 25 mg [1, 14]: 80%
activity at 25 mg ([1]; 48 h, pH 7; read-out: % Residual Activity): 74%
activity at 2000 µg/mL [1, 3]: 85%
activity at 25 mg ([1]; 48 h; pH 5.0; 25 mg stabilizer in 2.5 ml buffer + 2.5 ml extract (1×10^3 U/ml); 20° C. for 2 days; read-out: % Residual Activity): 4%
activity at 25 mg ([1]; 48 h; pH 8.0; 25 mg stabilizer in 2.5 ml buffer + 2.5 ml extract (1×10^3 U/ml); 20° C. for 2 days; read-out: % Residual Activity): 48%

Structure (SMILES): CC(C)C(=O)O [Isobutyric acid]
activity at 25 mg ([1]; 48 h, pH 5, read-out: % Residual Activity): 2%
activity at 25 mg ([1]; 48 h, pH 5.5, read-out: % Residual Activity): 82%
activity at 25 mg [1, 14]: 83%
activity at 2000 µg/mL [1, 4]: 83%
activity at 25 mg [1, 15]: 77%
activity at 25 mg ([1]; 48 h, pH 8, read-out: % Residual Activity): 42%
Quant. of AA produced (%) after enzyme was left standing (immobilized nitrilase; after standing at 20° C. for 3 days in buffer containing 5 g/l of isobutyric acid, 1 g gel): 0.60%
Quant. of AA produced (%) before enzyme was left standing (immobilized nitrilase; immobilized gel, 1 g with 5 g acrylonitrile, immobilized and washed with stabilizer): 0.71%

Structure (SMILES): CC(C)C#N [Isobutyronitrile]
activity at 25 mg ([1]; 48 h, pH 5; read-out: % Residual Activity): 3%
activity at 25 mg [1, 14]: 82%
activity at 2000 µg/mL [1, 7]: 88%
activity at 25 mg [1, 15]: 77%
activity at 25 mg ([1]; 48 h, pH 8; read-out: % Residual Activity): 45%

activity at 2000 µg/mL [1, 3]: 50%
Structure (SMILES): CC(O)C(N)=O (stereo not shown) [Lactamide]

Structure (SMILES): CC(O)C#N (stereo not shown) [Lactonitrile]
activity at 2000 µg/mL [1, 7]: 49%

activity at 2000 µg/mL [1, 2]: 43%
Structure (SMILES): O=C(O)CC(O)C(=O)O (stereo not shown) [Malic acid]

activity at 2000 µg/mL [1, 3]: 48%
Structure (SMILES): NC(=O)CC(N)=O [Malondiamide]

Structure (SMILES): N#CCC#N [Malononitrile]
activity at 2000 µg/mL ([1]; 48 h; pH 6.5; 20° C. for 2 days; read-out: % Residual Activity (Nitrile Added)): 55%

Structure (SMILES): C=C(C)C(N)=O [Methacrylamide]
activity at 2000 µg/mL [1, 3]: 70%

Structure (SMILES): C=C(C)C(=O)O [Methacrylic acid]
activity at 2000 µg/mL [1, 6]: 59%

Structure (SMILES): C=C(C)C#N [Methacrylonitrile]
activity at 2000 µg/mL [1, 7]: 62%

Structure (SMILES): O=C(O)CCl [Monochloroacetic acid]
activity at 2000 µg/mL [1, 6]: 39%

Structure (SMILES): NC(=O)c1cccnc1 [Nicotinamide]
activity at 2000 µg/mL [1, 5]: 39%

Structure (SMILES): N#Cc1cccnc1 [Nicotinonitrile]
activity at 2000 µg/mL [1, 7]: 43%

activity at 2000 µg/mL [1, 2]: 68%
Structure (SMILES): O=C(O)CC(=O)C(=O)O [Oxalacetic acid]

Structure (SMILES): CCC(N)=O [Propionamide]
activity at 2000 µg/mL [1, 3]: 83%

Structure (SMILES): CCC(=O)O [Propionic acid]
activity at 2000 µg/mL [1, 4]: 78%

Structure (SMILES): CCC#N [Propionitrile]
activity at 2000 µg/mL [1, 7]: 83%

activity at 2000 µg/mL [1, 3]: 63%
Structure (SMILES): NC(=O)CCC(N)=O [Succindiamide]

Structure (SMILES): O=C(O)CCC(=O)O [Succinic acid]
activity at 2000 µg/mL [1, 4]: 59%

Structure (SMILES): N#CCCC#N [Succinonitrile]
activity at 2000 µg/mL [1, 7]: 70%

activity at 2000 µg/mL [1, 2]: 81%
Structure (SMILES): CCCCC(=O)O [Valeric acid]

Structure (SMILES): CCCC(N)=O [n-Butyramide]
activity at 2000 µg/mL [1, 3]: 90%
remaining activity at 20000 µg/mL [1, 9]: 78%
remaining activity at 10 µg/mL [1, 10]: 60%
remaining activity at 100 µg/mL ([1]; stabilizer concentration 0.1 g/l; pH 6.0; […]; 20° C. for 2 days; read-out: % Residual Activity): 85%
remaining activity at 1000 µg/mL [1, 16]: 85%
remaining activity at 5000 µg/mL [1, 11]: 89%
remaining activity at 50000 µg/mL [1, 13]: 63%

Structure (SMILES): CCCC#N [n-Butyronitrile]
activity at 2000 µg/mL [1, 7]: 93%
remaining activity at 100 µg/mL [1, 9]: 82%
remaining activity at 10 µg/mL ([1]; stabilizer concentration 0.01 g/l; pH 6.0; […]; 20° C. for 2 days; read-out: % Residual Activity): 60%
remaining activity at 1000 µg/mL [1, 16]: 88%
remaining activity at 5000 µg/mL ([1]; stabilizer concentration 5.0 g/l; pH 6.0; […]; 20° C. for 2 days; read-out: % Residual Activity): 86%
remaining activity at 20000 µg/mL [1, 12]: 70%

activity at 2000 µg/mL [1, 3]: 75%
Structure (SMILES): CCCCCC(N)=O [n-Capronamide]

Structure (SMILES): CCCCCC#N [n-Capronitrile]
activity at 2000 µg/mL [1, 7]: 71%

activity at 2000 µg/mL [1, 3]: 78%
Structure (SMILES): CCCCC(N)=O [n-Valeramide]

Structure (SMILES): CCCCC#N [n-Valeronitrile]
activity at 2000 µg/mL [1, 7]: 82%

activity at 2000 µg/mL [1, 3]: 52%
Structure (SMILES): NCCC(N)=O [β-Aminopropionamide]

Structure (SMILES): NCCC(=O)O [β-Aminopropionic acid]
activity at 2000 µg/mL [1, 4]: 45%

Structure (SMILES): N#CCCN [β-Aminopropionitrile]
activity at 2000 µg/mL [1, 7]: 55%

activity at 2000 µg/mL [1, 3]: 68%
Structure (SMILES): NC(=O)CCCl [β-Chloropropionamide]

Structure (SMILES): N#CCCCl [β-Chloropropionitrile]
activity at 2000 µg/mL [1, 7]: 63%

activity at 2000 µg/mL [1, 3]: 61%
Structure (SMILES): NC(=O)CCO [β-Hydroxypropionamide]

Structure (SMILES): N#CCCO [β-Hydroxypropionitrile]
activity at 2000 µg/mL [1, 7]: 78%
